In paper PMC4878744, “Structure, Regulation, and Inhibition of the Quorum-Sensing Signal Integrator LuxO” (PLoS Biology, 2016):

Assays:
V. vulnificus LuxO-C [1] = molecular target: T1, V. vulnificus LuxO-C (Vibrio vulnificus, UniProt Q8CWJ5); conditions: pH 7.4, 23°C; turnover number versus LuxO-C concentration only in Figure 4A
V. vulnificus LuxO-C [2] = molecular target: T1, V. vulnificus LuxO-C; test: NADH-coupled ATPase assay, fit to one-inhibitor-per-oligomer model; format: biochemical; design: catalytic (C) domain only, R and D domains absent; C-terminal His6 tag; expressed in E. coli BL21(DE3); hexamer 173 kDa theoretical; conditions: competitive with ATP; 100 μM LuxO-C, 2 mM ATP, pH 7.4, 23°C, 4% DMSO; K is affinity relative to ATP (dimensionless ratio)

T1 sequence (Q8CWJ5 132-378): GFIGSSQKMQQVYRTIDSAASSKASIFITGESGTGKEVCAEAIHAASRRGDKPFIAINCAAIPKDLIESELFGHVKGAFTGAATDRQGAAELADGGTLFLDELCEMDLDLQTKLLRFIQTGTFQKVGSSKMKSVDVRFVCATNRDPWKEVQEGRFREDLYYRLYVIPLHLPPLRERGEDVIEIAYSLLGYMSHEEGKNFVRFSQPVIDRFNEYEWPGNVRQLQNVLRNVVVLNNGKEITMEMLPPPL

Compound | NADH-coupled ATPase assay (V. vulnificus LuxO-C [1]) | K (= Kd^ATP / Kd^AzaU) (V. vulnificus LuxO-C [2])
Nc1ncnc2c1ncn2[C@@H]1O[C@H](COP(=O)(O)OP(=O)(O)OP(=O)(O)O)[C@@H](O)[C@H]1O [ATP] | V. vulnificus LuxO-C | 
AzaU |  | 34 ± 2
